Earlier results on one molecule are cited in US20180256623A1, “COMPOSITIONS AND METHOD FOR REGULATING ADIPOSE TISSUE LIPOLYSIS, INSULIN-RESISTANCE, AND HYPERGLYCEMIA” (University of Virginia Patent Foundation, priority 2015, published 2018).

The structures appear in SMILES notation.

One series concerns the target T1, hormone-sensitive lipase (Homo sapiens, UniProt Q05469).
T1 sequence (Q05469 1-1076): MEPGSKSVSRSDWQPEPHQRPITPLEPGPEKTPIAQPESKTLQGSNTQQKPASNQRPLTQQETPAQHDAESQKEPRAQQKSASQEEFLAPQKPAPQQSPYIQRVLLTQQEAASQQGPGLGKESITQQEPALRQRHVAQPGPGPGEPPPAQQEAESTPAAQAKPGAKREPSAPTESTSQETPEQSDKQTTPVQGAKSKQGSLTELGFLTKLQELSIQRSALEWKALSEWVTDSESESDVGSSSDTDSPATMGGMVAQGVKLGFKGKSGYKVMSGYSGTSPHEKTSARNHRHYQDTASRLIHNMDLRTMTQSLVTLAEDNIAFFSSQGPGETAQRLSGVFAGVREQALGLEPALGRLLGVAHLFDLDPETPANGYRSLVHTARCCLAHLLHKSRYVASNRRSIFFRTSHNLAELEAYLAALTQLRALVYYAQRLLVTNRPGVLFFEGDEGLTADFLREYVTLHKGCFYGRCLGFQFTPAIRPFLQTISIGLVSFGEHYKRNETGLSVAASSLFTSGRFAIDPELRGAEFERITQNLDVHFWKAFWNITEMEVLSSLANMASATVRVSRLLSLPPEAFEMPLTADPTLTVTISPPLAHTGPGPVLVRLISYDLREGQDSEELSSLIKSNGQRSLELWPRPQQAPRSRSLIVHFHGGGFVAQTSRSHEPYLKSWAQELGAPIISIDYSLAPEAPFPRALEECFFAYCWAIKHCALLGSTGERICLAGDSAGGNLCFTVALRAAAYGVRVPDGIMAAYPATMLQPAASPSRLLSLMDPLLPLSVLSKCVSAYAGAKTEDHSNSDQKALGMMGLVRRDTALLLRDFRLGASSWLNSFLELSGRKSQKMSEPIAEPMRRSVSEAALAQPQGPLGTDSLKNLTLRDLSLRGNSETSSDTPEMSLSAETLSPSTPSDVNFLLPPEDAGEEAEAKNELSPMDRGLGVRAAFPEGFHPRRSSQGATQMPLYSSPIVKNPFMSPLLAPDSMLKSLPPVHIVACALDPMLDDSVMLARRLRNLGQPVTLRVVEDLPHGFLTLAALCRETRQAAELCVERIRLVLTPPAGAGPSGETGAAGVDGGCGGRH
The settings on record: cited from earlier work.

The next series concerns the target T2, PNPLA6 (Homo sapiens, UniProt Q8IY17).
T2 sequence (Q8IY17 1-1375): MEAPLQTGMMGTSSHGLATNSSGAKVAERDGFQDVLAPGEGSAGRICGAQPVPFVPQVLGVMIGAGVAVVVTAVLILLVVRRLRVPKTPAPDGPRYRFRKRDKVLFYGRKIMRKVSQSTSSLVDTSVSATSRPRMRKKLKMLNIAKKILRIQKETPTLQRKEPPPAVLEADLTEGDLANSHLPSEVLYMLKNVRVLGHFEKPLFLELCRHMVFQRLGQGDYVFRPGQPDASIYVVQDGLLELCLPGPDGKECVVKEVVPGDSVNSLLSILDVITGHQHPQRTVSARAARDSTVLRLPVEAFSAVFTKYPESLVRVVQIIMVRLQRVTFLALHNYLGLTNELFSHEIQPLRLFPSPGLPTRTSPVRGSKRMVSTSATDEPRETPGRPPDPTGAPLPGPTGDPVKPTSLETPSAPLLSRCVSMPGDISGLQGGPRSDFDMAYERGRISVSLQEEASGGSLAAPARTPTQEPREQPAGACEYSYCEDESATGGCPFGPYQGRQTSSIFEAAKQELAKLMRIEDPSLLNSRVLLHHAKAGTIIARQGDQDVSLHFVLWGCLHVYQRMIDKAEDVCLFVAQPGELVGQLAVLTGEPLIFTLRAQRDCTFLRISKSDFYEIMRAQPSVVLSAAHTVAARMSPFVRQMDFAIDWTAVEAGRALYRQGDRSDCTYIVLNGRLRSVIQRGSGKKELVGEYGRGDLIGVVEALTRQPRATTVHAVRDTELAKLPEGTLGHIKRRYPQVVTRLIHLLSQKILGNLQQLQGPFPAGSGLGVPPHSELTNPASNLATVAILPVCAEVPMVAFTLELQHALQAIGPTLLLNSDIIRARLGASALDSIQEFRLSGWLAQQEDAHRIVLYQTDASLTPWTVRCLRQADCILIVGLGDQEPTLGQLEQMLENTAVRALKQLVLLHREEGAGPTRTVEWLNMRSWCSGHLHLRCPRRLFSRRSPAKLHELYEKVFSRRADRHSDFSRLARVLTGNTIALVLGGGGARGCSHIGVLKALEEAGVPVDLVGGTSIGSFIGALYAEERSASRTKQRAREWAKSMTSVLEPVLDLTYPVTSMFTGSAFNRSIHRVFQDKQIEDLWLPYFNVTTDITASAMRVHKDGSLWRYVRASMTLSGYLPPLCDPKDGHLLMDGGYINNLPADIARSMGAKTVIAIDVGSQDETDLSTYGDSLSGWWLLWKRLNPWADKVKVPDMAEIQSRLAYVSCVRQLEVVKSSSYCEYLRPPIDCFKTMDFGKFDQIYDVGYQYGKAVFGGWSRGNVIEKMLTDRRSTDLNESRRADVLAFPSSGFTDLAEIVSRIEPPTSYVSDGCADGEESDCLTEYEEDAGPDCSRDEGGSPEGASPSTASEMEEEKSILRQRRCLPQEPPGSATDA
Conditions: cited from earlier work.

A further series relates to lipolysis by ATGL. Conditions: in vitro; cited from earlier work.

For `CN(C)C(=O)Nc1cccc(-c2ccc(N(C)C)cc2)c1` [Atglistatin, N′-[4′-(dimethylamino) [1,1′-biphenyl]-3-yl]-N,N-dimethyl-urea], on hormone-sensitive lipase, the “inhibition of hormone-sensitive lipase” value is on record as “does not inhibit”. Moreover, the “inhibition of PNPLA6” value on PNPLA6 is “does not inhibit”. Further, the “lipolysis by ATGL (fatty acid mobilization)” value in the series on lipolysis by ATGL is “blocks lipolysis”.
